What was measured:
Plasmopara viticola = format: in vivo; settings: 200 ppm; grape vine leaf disks; preventative, inoculated 1 day after application; assessed 6-8 days after application
Pythium ultimum = test: Pythium ultimum/Liquid Culture (Seedling Damping Off); format: cell-based; settings: Globisporangium ultimum, read-out: control of Pythium ultimum (inhibition of growth, photometric)
Phytophthora infestans = format: in vivo; settings: 200 ppm; tomato leaf disks; preventative, inoculated 1 day after application; assessed 5-7 days after application

## COC(=O)Nc1ccc(-c2cnc3c(C)cc(C(=O)N(Cc4cnn(C)c4)c4ccc(F)c(OC)c4)cn23)cn1 [Compound 1, methyl N-[5-[6-[(4-fluoro-3-methoxy-phenyl)-[(1-methylpyrazol-4-yl)methyl]carbamoyl]-8-methyl-imidazo[1,2-a]pyridin-3-yl]-2-pyridyl]carbamate]
Plasmopara viticola
  control of Plasmopara viticola (percent disease control compared to untreated): at least 80%
Pythium ultimum
  inhibition at 20 ppm: ≥ 80%
Phytophthora infestans
  control of Phytophthora infestans (percent disease control compared to untreated): at least 80%

## COC(=O)Nc1ccc(-c2cnc3ccc(C(=O)N(Cc4cnn(C)c4)c4ccc(F)c(OC)c4)cn23)cn1 [Compound 2, methyl N-[5-[6-[(4-fluoro-3-methoxy-phenyl)-[(1-methylpyrazol-4-yl)methyl]carbamoyl]imidazo[1,2-a]pyridin-3-yl]-2-pyridyl]carbamate]
Plasmopara viticola
  control of Plasmopara viticola (percent disease control compared to untreated): at least 80%
Pythium ultimum
  inhibition at 20 ppm: ≥ 80%
Phytophthora infestans
  control of Phytophthora infestans (percent disease control compared to untreated): at least 80%

## COC(=O)Nc1ccc(-c2cnc3ccc(C(=O)N(Cc4ccco4)c4ccc(Cl)cc4)cn23)cn1 [Compound 6, methyl N-[5-[6-[(4-chlorophenyl)-(2-furylmethyl)carbamoyl]imidazo[1,2-a]pyridin-3-yl]-2-pyridyl]carbamate]
Pythium ultimum
  inhibition at 20 ppm: ≥ 80%
Phytophthora infestans
  control of Phytophthora infestans (percent disease control compared to untreated): at least 80%

## COC(=O)Nc1ccc(-c2cnc3ccc(C(=O)N(Cc4ccccc4)c4ccc(F)cc4)cn23)cn1 [Compound 7, methyl N-[5-[6-[benzyl-(4-fluorophenyl)carbamoyl]imidazo[1,2-a]pyridin-3-yl]-2-pyridyl]carbamate]
Pythium ultimum
  inhibition at 20 ppm: ≥ 80%

## COC(=O)Nc1ccc(-c2cnc3ccc(C(=O)N(Cc4cnn(C)c4)c4ccc(F)cc4)cn23)cn1 [Compound 8, methyl N-[5-[6-[(4-fluorophenyl)-[(1-methylpyrazol-4-yl)methyl]carbamoyl]imidazo[1,2-a]pyridin-3-yl]-2-pyridyl]carbamate]
Plasmopara viticola
  control of Plasmopara viticola (percent disease control compared to untreated): at least 80%
Pythium ultimum
  inhibition at 20 ppm: ≥ 80%
Phytophthora infestans
  control of Phytophthora infestans (percent disease control compared to untreated): at least 80%

Source: patent US20260293899A1 (priority 2023, published 2026)
